Usually IC50 stands for the point on the concentration scale where inhibition reaches its midpoint.

T1 sequence (Q06187 whole entry): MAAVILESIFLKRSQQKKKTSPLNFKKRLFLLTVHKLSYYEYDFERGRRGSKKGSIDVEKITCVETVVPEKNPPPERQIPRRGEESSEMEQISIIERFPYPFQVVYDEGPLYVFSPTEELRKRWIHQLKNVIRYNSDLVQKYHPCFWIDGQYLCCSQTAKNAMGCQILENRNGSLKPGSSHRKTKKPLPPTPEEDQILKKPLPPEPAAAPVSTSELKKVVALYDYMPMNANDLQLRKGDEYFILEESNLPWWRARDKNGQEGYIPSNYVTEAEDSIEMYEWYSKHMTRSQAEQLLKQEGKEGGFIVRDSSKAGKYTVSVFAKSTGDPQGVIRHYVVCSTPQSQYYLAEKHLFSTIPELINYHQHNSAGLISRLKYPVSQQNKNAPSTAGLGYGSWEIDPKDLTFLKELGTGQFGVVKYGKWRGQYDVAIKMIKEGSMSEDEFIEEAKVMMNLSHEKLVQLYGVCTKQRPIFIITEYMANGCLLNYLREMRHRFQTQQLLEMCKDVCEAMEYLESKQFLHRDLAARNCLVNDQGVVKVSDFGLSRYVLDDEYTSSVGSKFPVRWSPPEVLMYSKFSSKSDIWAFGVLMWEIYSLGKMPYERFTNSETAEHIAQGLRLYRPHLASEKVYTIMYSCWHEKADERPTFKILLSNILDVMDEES

This assay addresses T1, full-length human BTK (Homo sapiens, UniProt Q06187).
T1 construct: 2.5× stocks of full-length human BTK (08-080); purchased CarnaBio USA, Inc., Natick, Mass; 08-080
Put plainly: Assay A: BTK IC50 Enzyme Assay (microfluidic off-chip mobility shift kinase assay). The class given is biochemical. The note with it: full-length human BTK, kinKDR peptide substrate, incubated 90 min at 27 C; read-out: Assay A (Time Dependent BTK Enzyme Assay IC50). Here is the method: Assay A: BTK IC50 Enzyme Assay
The following describes a microfluidic, off-chip mobility shift kinase assay used to measure inherent potency of compounds against BTK enzyme. Compounds described by embodiments of the present invention were assayed using this protocol and the data from the same is recorded in Table 2 within the column labeled: “Time Dependent BTK Enzyme Assay IC50”.
Stopped reactions were monitored at −2 PSI, −3000 V/−700 V in a LabChip 3000 plate reader from Caliper Life Sciences, a PerkinElmer Company (Hopkinton, Mass.), and the activity was measured by off-chip mobility shift assay measuring the charge/mass difference between substrate and product resulting from peptide phosphorilation. IC50 and efficacy were determined by plotting log [Inhibitor] vs. % Activity in GeneData Screener (Basel, Switzerland). […] I<1 uM and II>1 uM.
Regarding `C=CC(=O)N[C@H]1CCN(c2ccc(C(N)=O)c(Oc3ccc(C(=O)N4CCOCC4)cc3)n2)C1` [Compound 101, 6-((S)-3-Acryloylamino-pyrrolidin-1-yl)-2-[4-(morpholine-4-carbonyl)-phenoxy]-nicotinamide], the IC50 is above 5000 nM. For `C=CC(=O)N(C)[C@H]1CCN(c2ccc(C(N)=O)c(Oc3ccc(Oc4ccccc4)cc3)n2)C1` [Compound 107, 6-[(S)-3-(Acryloyl-methyl-amino)-pyrrolidin-1-yl]-2-(4-phenoxy-phenoxy)-nicotinamide], the concentration for half-maximal inhibition (IC50) is below 100 nM. Consider `C=CC(=O)N[C@H]1CCN(c2cc(Oc3ccc(Oc4ccccc4)cc3)c(C(N)=O)cn2)C1` [Compound 109, 6-((S)-3-Acryloylamino-pyrrolidin-1-yl)-4-(4-phenoxy-phenoxy)-nicotinamide], for which the concentration for half-maximal inhibition (IC50) was below 100 nM. The same measure for `C=CC(=O)N1CCC(c2cc(Oc3ccc(Oc4ccc(C)cc4)cc3)c(C(N)=O)cn2)C1` (stereo not shown) [Compound 110, 6-(1-acryloylpyrrolidin-3-yl)-4-(4-(p-tolyloxy)phenoxy)nicotinamide]: below 100 nM; for `C=CC(=O)N1CCC(c2cc(Oc3ccc(OCc4ccccc4)cc3)c(C(N)=O)cn2)C1` (stereo not shown) [Compound 111, 6-(1-acryloylpyrrolidin-3-yl)-4-(4-(benzyloxy)phenoxy)nicotinamide]: below 100 nM.

Turning to `C=CC(=O)N[C@H]1CCN(c2cc(Oc3ccc(OCc4ccccc4)cc3)c(C(N)=O)cn2)C1` [Compound 112, (S)-6-(3-acrylamidopyrrolidin-1-yl)-4-(4-(benzyloxy)phenoxy)nicotinamide], the IC50 is 100 to 1000 nM. Take `C=CC(=O)N[C@H]1CCN(c2cc(Oc3ccc(Oc4cccc(C#N)c4)cc3)c(C(N)=O)cn2)C1` [Compound 113, (S)-6-(3-acrylamidopyrrolidin-1-yl)-4-(4-(3-cyanophenoxy)phenoxy)nicotinamide]: the half-maximal inhibitory concentration (IC50) was in the range of 100 to 1000 nM. For `C=CC(=O)N[C@H]1CCN(c2cc(Oc3ccc(Oc4ccc(C)cc4)cc3)c(C(N)=O)cn2)C1` [Compound 114, (S)-6-(3-acrylamidopyrrolidin-1-yl)-4-(4-(p-tolyloxy)phenoxy)nicotinamide], the IC50 lay within 100 to 1000 nM. In the case of `C=CC(=O)N[C@H]1CCN(c2cc(Oc3cnn(Cc4ccccc4)c3)c(C(N)=O)cn2)C1` [Compound 115] it was 100 to 1000 nM. In the case of `C=CC(=O)N[C@H]1CCN(c2cc(Oc3ccc(C(=O)Nc4ccccc4)cc3)c(C(N)=O)cn2)C1` [Compound 116, (S)-6-(3-acrylamidopyrrolidin-1-yl)-4-(4-(phenylcarbamoyl)phenoxy)nicotinamide] it was 1000 to 5000 nM; in that of `C=CC(=O)N1CCC(c2cc(Oc3ccc(C(=O)Nc4ccccc4)cc3)c(C(N)=O)cn2)C1` (stereo not shown) [Compound 117], 1000 to 5000 nM; in that of `C=CC(=O)N1CCC=C(c2cnc(Oc3ccc(Oc4ccccc4)cc3)c(C(N)=O)c2)C1` [Compound 123, 1′-Acryloyl-6-(4-phenoxy-phenoxy)-1′,2′,5′,6′-tetrahydro-[3,3′]bipyridinyl-5-carboxylic acid amide], below 100 nM.

As to `C=CC(=O)N1CCC[C@H](c2cnc(Oc3ccc(Oc4ccccc4)cc3)c(C(N)=O)c2)C1` [Compound 124, (R)-5-(1-acryloylpiperidin-3-yl)-2-(4-phenoxyphenoxy)nicotinamide], the IC50 was below 100 nM. In the case of `C=CC(=O)N1CCC[C@@H](c2cnc(Oc3ccc(Oc4ccccc4)cc3)c(C(N)=O)c2)C1` [Compound 125, (S)-5-(1-acryloylpiperidin-3-yl)-2-(4-phenoxyphenoxy)nicotinamide] it was below 100 nM; in that of `C=CC(=O)N1CCCC(c2cnc(Oc3ccc(Oc4ccccc4)cc3)c(C(N)=O)c2)C1` (stereo not shown) [Compound 126, 1′-Acryloyl-6-(4-phenoxy-phenoxy)-1′,2′,3′,4′,5′,6′-hexahydro-[3,3′]bipyridinyl-5-carboxylic acid amide], below 100 nM; in that of `C=CC(=O)N1CCC(c2cnc(Oc3ccc(Oc4ccccc4)cc3)c(C(N)=O)c2)CC1` [Compound 127, 1′-Acryloyl-6-(4-phenoxy-phenoxy)-1′,2′,3′,4′,5′,6′-hexahydro-[3,4′]bipyridinyl-5-carboxylic acid amide], 100 to 1000 nM.

On to `C=CC(=O)N1CCn2ncc(-c3cnc(C(N)=O)c(NC(C)=O)c3)c2C1` [Compound 132], for which the half-inhibitory concentration (IC50) is below 100 nM. As to `C=CC(=O)NC1CCC(c2cnc(C(N)=O)c(NC(C)=O)c2)CC1` (stereo not shown) [Compound 133], the concentration for half-maximal inhibition (IC50) lay in the range of 1000 to 5000 nM. In the case of `C=CC(=O)N1C[C@@H]2C[C@H]1CN2c1cnc(C(N)=O)c(Oc2ccc(Oc3ccccc3)cc2)n1` [Compound 135, 5-((1S,4S)-5-Acryloyl-2,5-diaza-bicyclo[2.2.1]hept-2-yl)-3-(4-phenoxy-phenoxy)-pyrazine-2-carboxylic acid amide] it was 1000 to 5000 nM; in that of `C=CC(=O)N1[C@@H]2CC[C@H]1CC(c1cnc(C(N)=O)cn1)C2` (stereo partly shown) [Compound 136], 1000 to 5000 nM; in that of `C=CC(=O)N1CCn2ncc(-c3cnc(C(N)=O)cn3)c2C1` [Compound 137], above 5000 nM. In the case of `CN(C)C/C=C/C(=O)N1CCC(Nc2ncc(C(N)=O)c(N)n2)C1` (stereo not shown) [Compound 138, 4-Amino-2-[1-((E)-4-dimethylamino-but-2-enoyl)-pyrrolidin-3-ylamino]-pyrimidine-5-carboxylic acid amide] it was above 5000 nM; in that of `C=CC(=O)N[C@H]1CCN(c2ncc(C(N)=O)c(Nc3ccc(C(=O)N4CCOCC4)cc3)n2)C1` [Compound 140, 2-((S)-3-Acryloylamino-pyrrolidin-1-yl)-4-[4-(morpholine-4-carbonyl)-phenylamino]-pyrimidine-5-carboxylic acid amide], below 100 nM; in that of `C=CC(=O)N1CCC(Nc2ncc(C(N)=O)c(N)n2)C1` (stereo not shown) [Compound 141, 2-(1-Acryloyl-pyrrolidin-3-ylamino)-4-amino-pyrimidine-5-carboxylic acid amide], 100 to 1000 nM. On to `C=CC(=O)N[C@H]1CCN(c2ncc(C(N)=O)c(N)n2)C1` [Compound 142, 2-((S)-3-Acryloylamino-pyrrolidin-1-yl)-4-amino-pyrimidine-5-carboxylic acid amide], for which the IC50 lay within 100 to 1000 nM. As to `C=CC(=O)N[C@H]1C[C@@H](Nc2ncc(C(N)=O)c(N)n2)C1` [Compound 143, 2-(3-Acryloylamino-cyclobutylamino)-4-amino-pyrimidine-5-carboxylic acid amide], the half-inhibitory concentration (IC50) lay in the range of 100 to 1000 nM. In the case of `C=CC(=O)N[C@@H]1CCN(c2ncc(C(N)=O)c(N)n2)C1` [Compound 144, 2-((R)-3-Acryloylamino-pyrrolidin-1-yl)-4-amino-pyrimidine-5-carboxylic acid amide] it was 100 to 1000 nM; in that of `CN(C)C/C=C/C(=O)N[C@H]1CCN(c2ncc(C(N)=O)c(N)n2)C1` [Compound 145, 4-Amino-2-[(S)-3-((E)-4-dimethylamino-but-2-enoylamino)-pyrrolidin-1-yl]-pyrimidine-5-carboxylic acid amide], 1000 to 5000 nM; in that of `CN(C)C/C=C/C(=O)N[C@@H]1CCN(c2ncc(C(N)=O)c(N)n2)C1` [Compound 146, 4-Amino-2-[(R)-3-((E)-4-dimethylamino-but-2-enoylamino)-pyrrolidin-1-yl]-pyrimidine-5-carboxylic acid amide], above 5000 nM. The same measure for `C=CC(=O)N1C[C@@H]2C[C@H]1CN2c1ncc(C(N)=O)c(Oc2ccc(Oc3ccccc3)cc2)n1` [Compound 147, 2-((1S,4S)-5-acryloyl-2,5-diazabicyclo[2.2.1]heptan-2-yl)-4-(4-phenoxyphenoxy)pyrimidine-5-carboxamide]: below 100 nM; for `C=CC(=O)N1CCC(c2ncc(C(N)=O)c(Oc3ccc(Oc4ccccc4)cc3)n2)CC1` [Compound 148, 2-(1-Acryloyl-piperidin-4-yl)-4-(4-phenoxy-phenoxy)-pyrimidine-5-carboxylic acid amide]: below 100 nM.

Turning to `C=CC(=O)N1C2CCC1CN(c1ncc(C(N)=O)c(Oc3ccc(Oc4ccccc4)cc3)n1)C2` [Compound 149, 2-(8-Acryloyl-3,8-diaza-bicyclo[3.2.1]oct-3-yl)-4-(4-phenoxy-phenoxy)-pyrimidine-5-carboxylic acid amide], the IC50 is below 100 nM. The same measure for `C=CC(=O)N1CCC(c2ncc(C(N)=O)c(Oc3ccc(Oc4ccccc4)cc3)n2)C1` (stereo not shown) [Compound 150, 2-(1-Acryloyl-pyrrolidin-3-yl)-4-(4-phenoxy-phenoxy)-pyrimidine-5-carboxylic acid amide]: 100 to 1000 nM. As to `C=CC(=O)N1CCN(c2ncc(C(N)=O)c(Oc3ccc(Oc4ccccc4)cc3)n2)C(C)(C)C1` [Compound 151], the IC50 is 100 to 1000 nM. In the case of `C=CC(=O)NCc1cccc(-c2cnc(C(N)=O)nc2)c1` [Compound 152] it was 1000 to 5000 nM.

`C=CC(=O)N1CCC(c2cnc(C(N)=O)nc2)CC1` [Compound 153]: the IC50 is above 5000 nM. Consider `C=CC(=O)N1CCn2ncc(-c3cnc(C(N)=O)nc3)c2C1` [Compound 154], for which the concentration for half-maximal inhibition (IC50) was above 5000 nM.

As for `C=CC(=O)N1CCC(c2cnc(C(N)=O)nc2)C1` (stereo not shown) [Compound 155], the concentration for half-maximal inhibition (IC50) was above 5000 nM. Turning to `C=CC(=O)N[C@H]1CCN(c2nc(Nc3ccc(NC(=O)C(C)(C)C)cc3)ccc2C(N)=O)C1` [Compound 156, 2-((S)-3-Acryloylamino-pyrrolidin-1-yl)-6-[4-(2,2-dimethyl-propionylamino)-phenylamino]-nicotinamide], the IC50 was below 100 nM. The same measure for `C=CC(=O)N[C@H]1CCN(c2nc(Nc3ccc(F)c(C)c3)ccc2C(N)=O)C1` [Compound 157, 2-((S)-3-Acryloylamino-pyrrolidin-1-yl)-6-(4-fluoro-3-methyl-phenylamino)-nicotinamide]: below 100 nM.

The values above are taken from patent publication US10329270B2, “Heteroaryl compounds as BTK inhibitors and uses thereof” (Merck Patent GmbH, priority 2013, dated 2019).
